Drawing on patent publication US8017638B2, “Isoxazole derivative and isothiazole derivative having inhibitory activity on 11β-hydroxysteroid dehydrogenase type 1” (Shionogi & Co., Ltd., priority 2006, dated 2011), this text covers IC50 for 12 compounds.

Assay [1] concerns the target recombinant mouse 11β-HSD1 (Mus musculus, UniProt P50172). Description: Enzyme activity assay on mouse 11β-HSD1 (HTRF, corticosterone production). In kind it is biochemical. The conditions noted are these: recombinant mouse 11β-HSD1, 2 μM 11-dehydrocorticosterone as substrate, 2 hours at 37° C., read-out: mouseIC50. The protocol:
Evaluation of 11β-HSD1 Inhibitors (Enzyme Activity Assay on Mouse 11β-HSD1)
Enzymatic activity for mouse 11β-HSD1 activity was determined in a 10 μl final volume of assay mixture containing 50 mM sodium phosphate buffer (pH 7.6), 1 mg/ml bovine serum albumin, 0.42 mg/ml NADPH, 1.26 mg/ml glucose-6-phosphate, glucose-6-phosphate dehydrogenase, test compound, recombinant mouse 11β-HSD1, and 2 μM 11-dehydrocorticosterone as substrate. The reaction was started with the addition of 11-dehydrocorticosterone. After incubation for 2 hours at 37° C., 5 μl of europium cryptate-labelled anti-cortisol antibody and 5 μl of XL665-labeled cortisol were added. After further incubation for 2 hours at room temperature, the HTRF signal was measured. The corticosterone production was quantitated by a standard curve generated with several known concentrations of corticosterone in each assay.
The amount of corticosterone production without compounds served as control, and the percent inhibition by compound at each concentration was calculated. The IC50 value of the compound for 11β-HSD1 was obtained using the inhibition curve generated by plotting the percent inhibition versus the concentration of test compound.
A general note: TR-FRET usually uses a lanthanide donor and a delayed reading to cut background.

Assay [2] concerns the target recombinant human 11β-HSD1 (Homo sapiens, UniProt P28845). Description: Enzyme activity assay on human 11β-HSD1 (HTRF, cortisol production). In kind it is biochemical. The conditions noted are these: recombinant human 11β-HSD1, 5 μM cortisone as substrate, 2 hours at 37° C., read-out: humanIC50. The protocol:
Evaluation of 11β-HSD1 Inhibitors (Enzyme Activity Assay on Human 11β-HSD1)
Enzymatic activity for human 11β-HSD1 was determined in a 10 μl final volume of assay mixture containing 50 mM sodium phosphate buffer (pH 7.6), 1 mg/ml bovine serum albumin, 0.42 mg/ml NADPH, 1.26 mg/ml glucose-6-phosphate, glucose-6-phosphate dehydrogenase, test compound, recombinant human 11β-HSD1, and 5 μM cortisone as substrate. The reaction was started with the addition of cortisone. After incubation for 2 hours at 37° C., 5 μl of europium cryptate-labelled anti-cortisol antibody and 5 μl of XL665-labeled cortisol were added. After further incubation for 2 hours at room temperature, the homogeneous time-resolved fluorescence (HTRF) signal was measured. The cortisol production was quantitated by a standard curve generated with several known concentrations of cortisol in each assay.
The amount of cortisol production without compounds served as control, and the percent inhibition by test compound at each concentration was calculated. The IC50 value of the compound for 11β-HSD1 was obtained using the inhibition curve generated by plotting the percent inhibition versus the concentration of test compound.

pIC50: −log10 of the molar value.

recombinant human 11β-HSD1, sequence (P28845 whole entry): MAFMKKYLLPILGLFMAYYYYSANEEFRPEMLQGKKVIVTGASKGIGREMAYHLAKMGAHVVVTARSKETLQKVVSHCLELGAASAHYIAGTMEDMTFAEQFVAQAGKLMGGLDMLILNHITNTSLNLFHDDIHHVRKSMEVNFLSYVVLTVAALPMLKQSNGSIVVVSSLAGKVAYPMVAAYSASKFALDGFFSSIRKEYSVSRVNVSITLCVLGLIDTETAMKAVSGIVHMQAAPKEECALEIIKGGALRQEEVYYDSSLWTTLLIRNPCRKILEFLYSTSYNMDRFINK
recombinant mouse 11β-HSD1, sequence (P50172 whole entry): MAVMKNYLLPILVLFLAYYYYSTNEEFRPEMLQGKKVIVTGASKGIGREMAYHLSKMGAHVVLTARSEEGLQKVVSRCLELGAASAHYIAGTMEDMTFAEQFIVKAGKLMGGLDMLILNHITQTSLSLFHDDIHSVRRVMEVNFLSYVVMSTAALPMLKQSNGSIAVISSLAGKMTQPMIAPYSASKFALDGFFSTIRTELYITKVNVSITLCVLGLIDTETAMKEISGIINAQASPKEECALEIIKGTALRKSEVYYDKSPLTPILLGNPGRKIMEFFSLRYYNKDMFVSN

For `CCCSc1c(OCC2CCNCC2)noc1C(=O)NC1C2CC3CC(C2)CC1C3` (stereo not drawn) [Compound 9c], the pIC50 is 6.30 in assay [1] and 6.74 in assay [2].

On to `CC(C)Sc1c(OCC2CCNCC2)noc1C(=O)NC1C2CCCC1CCC2` (stereo not drawn) [Compound 12b], for which the pIC50 was 5.80 in assay [1] and 6.85 in assay [2].

In the case of `CC(C)Sc1c(OCC(C)(C)NC(=O)NCCN)noc1C(=O)NC1C2CC3CC(C2)CC1C3` (stereo not drawn) [Compound 27], the pIC50 in assay [1] was 7.42; in assay [2] it was 6.59.

For the compound `CC(C)Sc1c(OCC(C)(C)N)noc1C(=O)NC1C2CC3CC(C2)CC1C3` (stereo not drawn) [Compound 29], the pIC50 was 6.48 in assay [1] and 7.37 in assay [2].

With `CC(C)Sc1c(OCC(C)(C)C(=O)N2CCNCC2)noc1C(=O)NC1C2CC3CC(C2)CC1C3` (stereo not drawn) [II-18], the pIC50 is 7.31 in assay [1] and 7.46 in assay [2].

Take `CC(C)Sc1c(OCC(F)(F)C(=O)NCCN)noc1C(=O)NC1C2CC3CC(C2)CC1C3` (stereo not drawn) [II-25]: the pIC50 was 6.80 in assay [1] and 7.29 in assay [2].

Consider `CC(C)Sc1c(OCC(C)(C)NC(=O)C2(N)CC2)noc1C(=O)NC1C2CC3CC(C2)CC1C3` (stereo not drawn) [II-49], for which the pIC50 is 7.64 in assay [1] and 7.15 in assay [2].

As for `CC(C)CSc1c(OCC(C)(C)CCCN)noc1C(=O)NC1C2CC3CC(C2)CC1C3` (stereo not drawn) [II-72], the results for the pIC50 in assay [1] and in assay [2] were 8.19 and 7.11, respectively.

As for `COCC(C)(C)COc1noc(C(=O)NC2C3CC4CC(C3)CC2C4)c1SC(C)C` (stereo not drawn) [II-117], the pIC50 in assay [1] is 7.68; in assay [2], 7.02.

Turning to `CC(C)Sc1c(OCC(C)(C)C#N)noc1C(=O)N[C@H]1C2CC3CC1C[C@](O)(C3)C2` [II-130], the pIC50 was 7.48 in assay [1] and 7.07 in assay [2].

On to `O=C(NC1(COc2noc(C(=O)N[C@H]3C4CC5CC3C[C@](O)(C5)C4)c2SC2CCCC2)CC1)c1ccc(Cl)cc1Cl` [II-150], for which the results for the pIC50 in assay [1] and in assay [2] were 7.57 and 8.00, respectively.

In the case of `CC(C)(COc1noc(C(=O)N[C@H]2C3CC4CC2C[C@](O)(C4)C3)c1SC1CCCC1)N1CCOC1=O` [II-153], the pIC50 in assay [1] is 7.85; in assay [2], 7.60.
